From patent US7595329B2, “Benzimidazolone carboxylic acid derivatives” (Pfizer Inc, priority 2004, dated 2009)

Row | Compound | melting point [°C]
1 | CC(C)n1c(=O)n(C(=O)NCC2CCN(CC3(C(=O)O)CC3)CC2)c2ccccc21.Cl | 206
2 | CC(C)n1c(=O)n(C(=O)NCC2CCN(CC3(C(=O)O)CCCCC3)CC2)c2ccccc21 [Example 2, 1-{[4-({[(3-isopropyl-2-oxo-2,3-dihydro-1H-benzimidazol-1-yl)carbonyl]amino}methyl)piperidin-1-yl]methyl}cyclohexanecarboxylic acid] | 151
3 | CC(C)n1c(=O)n(C(=O)NCC2(O)CCN(CC3(C(=O)O)CCCCC3)CC2)c2ccccc21 [Example 6, 1-{[4-hydroxy-4-({[(3-isopropyl-2-oxo-2,3-dihydro-1H-benzimidazol-1-yl)carbonyl]amino}methyl)piperidin-1-yl]methyl}cyclohexanecarboxylic acid] | 184

The next lines start with the values.

Row | melting point [°C] | Compound
4 | 176 | CC(C)n1c(=O)n(C(=O)NCC2CCN(CC3(C(=O)O)CCOCC3)CC2)c2ccccc21 [Example 1, 4-{[4-({[(3-isopropyl-2-oxo-2,3-dihydro-1H-benzimidazol-1-yl)carbonyl]amino}methyl)piperidin-1-yl]methyl}tetrahydro-2H-pyran-4-carboxylic acid]
5 | 165 | CC(C)n1c(=O)n(C(=O)NCC2CCN(CC3(C(=O)O)CCCC3)CC2)c2ccccc21 [Example 3, 1-{[4-({[(3-isopropyl-2-oxo-2,3-dihydro-1H-benzimidazol-1-yl)carbonyl]amino}methyl)piperidin-1-yl]methyl}cyclopentanecarboxylic acid]
